Test results from ChEMBL document CHEMBL5108059, “Discovery of 2-Methyl-2-(4-(2-methyl-8-(1H-pyrrolo[2,3-b]pyridin-6-yl)-1H-naphtho[1,2-d]imidazol-1-yl)phenyl)propanenitrile as a Novel PI3K/mTOR Inhibitor with Enhanced Antitumor Efficacy In Vitro and In Vivo” (J Med Chem, 2022).

Experiments:
[1] = target: Phosphatidylinositol 4,5-bisphosphate 3-kinase catalytic subunit alpha isoform (Homo sapiens, UniProt P42336); assay: Inhibition of PI3Kalpha (unknown origin) using PIP2 as substrate incubated for 1 hr in presence of ATP by Kinase Glo luminescence assay
Chain of Phosphatidylinositol 4,5-bisphosphate 3-kinase catalytic subunit alpha isoform (P42336 whole entry, canonical isoform): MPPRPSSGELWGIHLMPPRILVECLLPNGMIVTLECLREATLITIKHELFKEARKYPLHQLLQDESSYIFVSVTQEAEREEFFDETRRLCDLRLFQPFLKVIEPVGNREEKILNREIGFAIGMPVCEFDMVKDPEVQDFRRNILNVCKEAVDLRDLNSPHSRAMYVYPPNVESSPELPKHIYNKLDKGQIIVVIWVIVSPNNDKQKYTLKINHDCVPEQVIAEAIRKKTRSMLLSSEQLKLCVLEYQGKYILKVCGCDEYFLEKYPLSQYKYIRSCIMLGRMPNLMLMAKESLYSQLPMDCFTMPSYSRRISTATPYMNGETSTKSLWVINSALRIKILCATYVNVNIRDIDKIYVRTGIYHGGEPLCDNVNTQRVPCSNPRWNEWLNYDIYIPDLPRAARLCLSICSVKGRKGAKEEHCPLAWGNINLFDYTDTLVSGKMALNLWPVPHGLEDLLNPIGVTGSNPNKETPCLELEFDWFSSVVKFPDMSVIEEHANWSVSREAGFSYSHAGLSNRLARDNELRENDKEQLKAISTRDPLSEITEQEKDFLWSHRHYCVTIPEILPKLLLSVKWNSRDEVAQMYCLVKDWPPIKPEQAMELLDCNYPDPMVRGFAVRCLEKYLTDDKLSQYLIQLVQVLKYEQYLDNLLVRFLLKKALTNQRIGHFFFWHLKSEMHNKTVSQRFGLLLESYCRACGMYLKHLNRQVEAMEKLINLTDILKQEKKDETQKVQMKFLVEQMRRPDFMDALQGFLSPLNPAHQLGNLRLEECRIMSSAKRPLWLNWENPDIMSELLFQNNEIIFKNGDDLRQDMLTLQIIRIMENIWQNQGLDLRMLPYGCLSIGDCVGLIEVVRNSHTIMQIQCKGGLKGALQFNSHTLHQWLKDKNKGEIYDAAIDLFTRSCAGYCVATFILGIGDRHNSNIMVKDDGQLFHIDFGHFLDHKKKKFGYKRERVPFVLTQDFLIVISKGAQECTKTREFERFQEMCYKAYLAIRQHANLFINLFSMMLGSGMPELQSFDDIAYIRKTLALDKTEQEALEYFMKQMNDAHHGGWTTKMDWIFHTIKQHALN

[2] = target: T1, Phosphatidylinositol 4,5-bisphosphate 3-kinase catalytic subunit delta isoform (Homo sapiens, UniProt O00329); assay: Inhibition of PI3Kdelta (unknown origin) using PIP2 as substrate incubated for 2 hrs in presence of ATP by Kinase Glo luminescence assay
T1 sequence (O00329 whole entry): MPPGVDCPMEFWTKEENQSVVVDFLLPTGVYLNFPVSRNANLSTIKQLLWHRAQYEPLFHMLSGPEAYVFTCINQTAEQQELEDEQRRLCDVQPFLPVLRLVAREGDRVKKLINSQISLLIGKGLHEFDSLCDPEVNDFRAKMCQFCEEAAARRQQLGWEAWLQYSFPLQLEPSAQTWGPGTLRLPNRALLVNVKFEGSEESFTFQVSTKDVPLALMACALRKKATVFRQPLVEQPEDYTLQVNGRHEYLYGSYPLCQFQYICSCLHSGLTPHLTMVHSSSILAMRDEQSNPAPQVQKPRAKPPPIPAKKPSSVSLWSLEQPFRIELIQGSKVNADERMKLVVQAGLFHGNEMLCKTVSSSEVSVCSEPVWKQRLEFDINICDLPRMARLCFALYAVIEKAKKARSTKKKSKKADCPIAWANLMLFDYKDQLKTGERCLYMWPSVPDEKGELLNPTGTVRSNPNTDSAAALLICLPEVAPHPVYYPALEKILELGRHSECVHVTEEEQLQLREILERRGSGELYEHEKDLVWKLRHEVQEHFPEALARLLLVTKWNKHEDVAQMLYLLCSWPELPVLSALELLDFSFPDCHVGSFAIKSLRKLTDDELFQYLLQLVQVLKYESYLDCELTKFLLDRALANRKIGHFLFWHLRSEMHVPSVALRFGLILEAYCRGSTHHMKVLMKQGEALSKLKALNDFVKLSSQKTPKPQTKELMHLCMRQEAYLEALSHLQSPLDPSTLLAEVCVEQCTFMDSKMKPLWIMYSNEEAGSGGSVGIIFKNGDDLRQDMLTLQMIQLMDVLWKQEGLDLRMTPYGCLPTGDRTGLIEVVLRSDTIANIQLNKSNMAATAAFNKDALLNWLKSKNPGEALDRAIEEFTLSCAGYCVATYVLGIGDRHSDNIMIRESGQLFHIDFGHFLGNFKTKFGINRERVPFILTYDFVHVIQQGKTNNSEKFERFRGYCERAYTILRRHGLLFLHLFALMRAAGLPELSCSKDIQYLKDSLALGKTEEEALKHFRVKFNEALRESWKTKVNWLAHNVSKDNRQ

[3] = target: Phosphatidylinositol 4,5-bisphosphate 3-kinase catalytic subunit beta isoform (Homo sapiens, UniProt P42338); assay: Inhibition of PI3Kbeta (unknown origin) using PIP2 as substrate incubated for 1 hr in presence of ATP by Kinase Glo luminescence assay
Chain of Phosphatidylinositol 4,5-bisphosphate 3-kinase catalytic subunit beta isoform (P42338 whole entry, canonical isoform): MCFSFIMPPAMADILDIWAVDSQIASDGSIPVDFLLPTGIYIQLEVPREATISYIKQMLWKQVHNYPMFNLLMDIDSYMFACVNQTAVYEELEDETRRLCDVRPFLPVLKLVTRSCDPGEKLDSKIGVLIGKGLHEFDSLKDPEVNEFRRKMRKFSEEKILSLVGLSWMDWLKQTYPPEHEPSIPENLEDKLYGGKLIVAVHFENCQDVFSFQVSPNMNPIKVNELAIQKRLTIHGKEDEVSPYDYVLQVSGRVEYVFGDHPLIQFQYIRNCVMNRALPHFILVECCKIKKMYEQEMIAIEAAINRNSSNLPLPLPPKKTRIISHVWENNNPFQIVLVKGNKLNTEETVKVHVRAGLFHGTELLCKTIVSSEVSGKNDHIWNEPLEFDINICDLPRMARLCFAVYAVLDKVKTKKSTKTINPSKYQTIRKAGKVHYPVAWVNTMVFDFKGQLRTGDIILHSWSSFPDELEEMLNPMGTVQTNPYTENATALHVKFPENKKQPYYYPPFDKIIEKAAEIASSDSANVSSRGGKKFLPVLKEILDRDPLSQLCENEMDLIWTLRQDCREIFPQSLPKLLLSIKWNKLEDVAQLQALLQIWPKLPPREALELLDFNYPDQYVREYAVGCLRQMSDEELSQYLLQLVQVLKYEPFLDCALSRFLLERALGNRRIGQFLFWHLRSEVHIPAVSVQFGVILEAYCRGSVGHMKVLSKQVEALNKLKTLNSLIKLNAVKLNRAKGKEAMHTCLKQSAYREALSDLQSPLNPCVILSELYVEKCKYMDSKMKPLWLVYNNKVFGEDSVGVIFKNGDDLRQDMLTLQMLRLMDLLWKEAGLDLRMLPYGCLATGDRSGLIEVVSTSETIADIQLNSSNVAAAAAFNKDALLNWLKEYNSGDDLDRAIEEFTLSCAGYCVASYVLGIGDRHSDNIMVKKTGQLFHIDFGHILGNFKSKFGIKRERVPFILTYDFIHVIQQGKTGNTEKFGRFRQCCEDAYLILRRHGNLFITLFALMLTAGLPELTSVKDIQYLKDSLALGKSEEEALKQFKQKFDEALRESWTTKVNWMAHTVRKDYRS

[4] = target: Phosphatidylinositol 4,5-bisphosphate 3-kinase catalytic subunit gamma isoform (Homo sapiens, UniProt P48736); assay: Inhibition of PI3Kgamma (unknown origin) using PIP2 as substrate incubated for 2 hrs in presence of ATP by Kinase Glo luminescence assay
Chain of Phosphatidylinositol 4,5-bisphosphate 3-kinase catalytic subunit gamma isoform (P48736 whole entry, canonical isoform): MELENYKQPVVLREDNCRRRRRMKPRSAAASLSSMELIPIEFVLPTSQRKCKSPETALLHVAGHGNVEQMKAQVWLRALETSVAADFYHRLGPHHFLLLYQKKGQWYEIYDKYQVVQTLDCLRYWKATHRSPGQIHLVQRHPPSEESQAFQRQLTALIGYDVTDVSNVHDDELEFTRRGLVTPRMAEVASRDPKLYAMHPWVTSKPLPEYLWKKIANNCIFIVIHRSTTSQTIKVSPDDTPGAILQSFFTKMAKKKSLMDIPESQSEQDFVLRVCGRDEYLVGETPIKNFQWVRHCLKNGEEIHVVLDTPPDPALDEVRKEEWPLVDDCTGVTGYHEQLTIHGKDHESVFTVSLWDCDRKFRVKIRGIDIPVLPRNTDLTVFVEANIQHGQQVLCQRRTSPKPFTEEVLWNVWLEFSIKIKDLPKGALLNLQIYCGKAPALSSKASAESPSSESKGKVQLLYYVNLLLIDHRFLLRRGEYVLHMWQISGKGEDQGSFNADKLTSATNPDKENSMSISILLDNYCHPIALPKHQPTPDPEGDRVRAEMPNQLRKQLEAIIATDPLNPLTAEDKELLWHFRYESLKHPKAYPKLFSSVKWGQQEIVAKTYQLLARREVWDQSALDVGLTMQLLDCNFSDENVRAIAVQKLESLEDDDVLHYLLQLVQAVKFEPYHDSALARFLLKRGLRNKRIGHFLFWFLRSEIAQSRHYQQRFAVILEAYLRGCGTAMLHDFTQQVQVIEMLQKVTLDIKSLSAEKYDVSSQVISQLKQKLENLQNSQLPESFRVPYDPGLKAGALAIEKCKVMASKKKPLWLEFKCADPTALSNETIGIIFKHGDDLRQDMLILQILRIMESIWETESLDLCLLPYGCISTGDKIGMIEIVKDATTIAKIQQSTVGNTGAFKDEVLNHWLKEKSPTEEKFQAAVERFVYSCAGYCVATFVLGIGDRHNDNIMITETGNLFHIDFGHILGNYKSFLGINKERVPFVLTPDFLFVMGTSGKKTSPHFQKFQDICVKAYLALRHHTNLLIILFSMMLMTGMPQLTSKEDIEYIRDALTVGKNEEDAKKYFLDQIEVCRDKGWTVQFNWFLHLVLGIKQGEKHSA

HCT-15 = assay: Antiproliferative activity against human HCT-15 cells with PIK3CA mutation assessed as inhibition of cell growth incubated for 48 to 72 hrs by MTT assay; type: functional, cell-based
NCI-H446 = assay: Antiproliferative activity against PTEN-null human NCI-H446 cells assessed as inhibition of cell growth incubated for 48 to 72 hrs by MTT assay; type: functional, cell-based
HeLa [5] = assay: Inhibition of colony formation in human HeLa cells assessed as reduction in colony forming ability incubated for 15 days by crystal violet staining based analysis; type: functional, cell-based; conditions: dose 0.15625-1.25 µM, time 15.0 day, DDE = dose-dependent effect
HeLa [6] = assay: Induction of apoptosis in human HeLa cells assessed as viable cells at 0.625 uM incubated for 36 hrs by Annexin V-FITC/PI staining based flow cytometric analysis (reference value: 96.14 %); type: functional; conditions: read-out: Activity
HeLa [7] = assay: Induction of apoptosis in human HeLa cells assessed as early apoptotic cells at 0.625 uM incubated for 36 hrs by Annexin V-FITC/PI staining based flow cytometric analysis (reference value: 2.02 %); type: functional
HeLa [8] = assay: Induction of apoptosis in human HeLa cells assessed as late apoptotic cells at 1.25 uM incubated for 36 hrs by Annexin V-FITC/PI staining based flow cytometric analysis (reference value: 1.4 %); type: functional
HeLa [9] = assay: Induction of apoptosis in human HeLa cells assessed as early apoptotic cells at 2.5 uM incubated for 36 hrs by Annexin V-FITC/PI staining based flow cytometric analysis (reference value: 2.02 %); type: functional
HeLa [10] = assay: Induction of apoptosis in human HeLa cells assessed as late apoptotic cells at 2.5 uM incubated for 36 hrs by Annexin V-FITC/PI staining based flow cytometric analysis (reference value: 1.4 %); type: functional
HeLa [11] = assay: Induction of apoptosis in human HeLa cells assessed as dead cells at 2.5 uM incubated for 36 hrs by Annexin V-FITC/PI staining based flow cytometric analysis (reference value: 0.44 %); type: functional
HeLa [12] = assay: Inhibition of PI3K/mTOR signalling pathway in human HeLa cells assessed as inhibition of Akt phosphorylation at Ser473 residue incubated for 24 hrs by Western blot analysis; type: cell-based; conditions: dose 0.3125-2.5 µM, DDE = dose-dependent effect
SW-620 [13] = assay: Induction of cell cycle arrest in human SW620 cells assessed as accumulation of cells at G0/G1 phase measured after 24 hrs by propidium iodide staining based flow cytometry analysis; type: functional; conditions: dose 0.15625-2.5 µM, DDE = dose-dependent effect
[14] = Oral bioavailability in Sprague-Dawley rat at 10 mg/kg measured for 24 hrs by LC-MS/MS analysis; type: ADME, organism-based; conditions: in vivo
HeLa [15] = assay: Antitumor activity against human HeLa cells xenografted in BALB/c nude mouse assessed as tumor growth inhibition at 30 mg/kg, IG administered daily for 30 days and measured every 2 days relative to control; type: functional; conditions: po, 720 h, time 30 day, read-out: TGI
HeLa [16] = assay: Antitumor activity against human HeLa cells xenografted in BALB/c nude mouse assessed as tumor growth inhibition at 60 mg/kg, IG administered daily for 30 days and measured every 2 days relative to control; type: functional; conditions: po, 720 h, time 30 day, read-out: TGI
SW-620 [17] = assay: Antitumor activity against human SW620 cells xenografted in BALB/c nude mouse assessed as tumor growth inhibition at 30 mg/kg, IG administered daily for 30 days and measured every 2 days relative to control; type: functional; conditions: SW-620, po, 720 h, time 30 day, read-out: TGI
[18] = Toxicity in BALB/c nude mouse xenografted with human HeLa cells assessed as pathological changes in liver at 60 mg/kg, IG administered daily for 30 days by hematoxylin and eosin staining based microscopic analysis; type: organism-based; conditions: in vivo, po, 720 h, time 30 day
[19] = target: Serine/threonine-protein kinase mTOR (Rattus norvegicus, UniProt P42346); assay: Inhibition of rat brain mTOR using GST-p70S6K fusion protein as substrate preincubated for 30 mins followed by ATP addition and measured after 30 mins by K-Lisa assay; type: tissue-based

Cc1nc2cnc3ccc(-c4cnc5[nH]ccc5c4)cc3c2n1-c1ccc(C(C)(C)C#N)nc1
IC50 [1]: 0.0035 µM | IC50 [2]: 0.0046 µM | IC50 [3]: 0.108 µM | IC50 [4]: 0.0793 µM | IC50 (HCT-15): 0.17 µM | IC50 (NCI-H446): 0.97 µM | inhibition (HeLa [5]): Dde | viability at 0.625 µM (HeLa [6]): 70.1% | Activity (HeLa [7]): 18.32% | Activity (HeLa [8]): 23.32% | Activity (HeLa [9]): 27.18% | Activity (HeLa [10]): 38.86% | Activity (HeLa [11]): 6.13% | inhibition (HeLa [12]): Dde | Activity (SW-620 [13]): Dde | bioavailability [14]: 76.8% | inhibition in vivo at 30 mg/kg (HeLa [15]): 73.5% | inhibition in vivo at 60 mg/kg (HeLa [16]): 80.2% | inhibition in vivo at 30 mg/kg (SW-620 [17]): 70.8% | Activity [18]: Non-Toxic | IC50 [19]: 0.0207 µM
